Counter-ions that a name gives are not always drawn. Like-named read-outs stand apart in the source and are kept apart here.

Test [1] concerns RIF-1 murine fibrosarcoma.
Method: The transplantable experimental murine fibrosarcomas RIF-1 or KHT were grown intradermally (2×10^5 cells injected i.d.) in the flank of 5 month old male C3H mice. When tumors reached a volume of ~100 mm^3 they were used for the studies. […] Drug concentrations were: adriamycin, 3.75 mg/ml: BCNU, 10 mg/ml: vinblastine, 1.2 mg/ml; and 5-fluorouracil, 30 mg/ml. The drugs were administered intraperitoneally (i.p.) or intratumorally (i.t.) in an injection volume of 0.1 ml. The tumors of the treated mice as well as untreated control tumors were measured three times per week by vernier calipers and their volumes were calculated by the formula:
*This ratio indicated the time it would take a treated tumor to grow to
4× its initial size, divided by the time it would take an untreated
tumor to grow to 4× its initial size.
Test [2] concerns KHT murine fibrosarcoma. The test can be described thus: Tumor growth ratio (time to grow to 4x initial volume, treated/untreated), KHT fibrosarcoma in C3H mice. The format is in vivo, mouse (C3H). How it is done:
(§1) The transplantable experimental murine fibrosarcomas RIF-1 or KHT were grown intradermally (2×10^5 cells injected i.d.) in the flank of 5 month old male C3H mice. When tumors reached a volume of ~100 mm^3 they were used for the studies. The cytotoxic drugs under study (all were formulated for human clinical use) were made up just prior to use in their appropriate aqueous vehicle except those experimental groups in which epinephrine-HCl (1 mg/ml) was added to the aqueous drug (usually ~10% of total volume). Drug concentrations were: adriamycin, 3.75 mg/ml: BCNU, 10 mg/ml: vinblastine, 1.2 mg/ml; and 5-fluorouracil, 30 mg/ml. The drugs were administered intraperitoneally (i.p.) or intratumorally (i.t.) in an injection volume of 0.1 ml. The tumors of the treated mice as well as untreated control tumors were measured three times per week by vernier calipers and their volumes were calculated by the formula: […]
(§2) where D1 -D3 are tumor diameters in mm. The time (days) for the tumors to grow to four times their original experimental volume was used as a parameter of treatment effectiveness.

Test [3] relates to murine fibrosarcomas RIF-1 or KHT. The settings on record: epinephrine 1 mg/kg alone. As to the method:
as §1, §2

Where [4] appears, read: 2 mg/kg BW i.t., Epi 1 mg/kg where combined.

For the compound `O=c1[nH]cc(F)c(=O)[nH]1` [5-Fluorouracil, 5-fluorouracil], the “Tumor Growth Ratio” value in test [1] (100 mg/kg BW i.p.) was 1.20; in test [1] (100 mg/kg BW i.t., Epi 1 mg/kg where combined), 1.30.

In the case of `COc1cccc2c1C(=O)c1c(O)c3c(c(O)c1C2=O)C[C@@](O)(C(=O)CO)C[C@@H]3O[C@H]1C[C@H](N)[C@H](O)[C@H](C)O1` [Adriamycin, doxorubicin hydrochloride], the “Tumor Growth Ratio” value in test [1] (15 mg/kg BW i.p.) is recorded as 1.63; in test [1] (15 mg/kg BW i.t., Epi 1 mg/kg where combined), 3.04.

For the compound `O=NN(CCCl)C(=O)NCCCl` [BCNU (carmustine), carmustine], in test [2] (40 mg/kg BW i.t., Epi 1 mg/kg where combined), the “Tumor Growth Ratio” value turned out to be 2.08.

Turning to `CNC[C@H](O)c1ccc(O)c(O)c1` [Epinephrine, epinephrine], in test [3], the “chemotherapeutic effect when used alone” value was “not chemotherapeutic when used alone”.

Consider `CC[C@]1(O)C[C@@H]2CN(CCc3c([nH]c4ccccc34)[C@@](C(=O)OC)(c3cc4c(cc3OC)N(C)[C@H]3[C@@](O)(C(=O)OC)[C@H](OC(C)=O)[C@]5(CC)C=CCN6CC[C@]43[C@@H]65)C2)C1` [Vinblastine, vinblastine sulfate], for which the “Tumor Growth Ratio” value is on record as 1.12 in test [1] (2 mg/kg BW i.p.), 3.01 in test [1] (setting [4]), 1.16 in test [2] (2 mg/kg BW i.p.) and 1.76 in test [2] (setting [4]).
